Measurements published in EP0385680B1, “Heterocyclic ethers as 5-lipoxygenase inhibitors” (ZENECA LIMITED, priority 1989, dated 1990).

Assays:
5-LO = molecular target: T1, 5-LO (Homo sapiens, UniProt P09917); assay: Test b): in vitro heparinised human blood challenged with calcium ionophore A23187, radioimmunoassay of LTB4; format: cell-based; settings: A23187 challenge, read-out: IC₅₀ against LTB₄
T1 construct: incubating a test compound with heparinised human blood, prior to challenge with the calcium ionophore A23187; endogenous in cells; host or cells: blood cells in heparinised human whole blood
T1 sequence (P09917 1-674): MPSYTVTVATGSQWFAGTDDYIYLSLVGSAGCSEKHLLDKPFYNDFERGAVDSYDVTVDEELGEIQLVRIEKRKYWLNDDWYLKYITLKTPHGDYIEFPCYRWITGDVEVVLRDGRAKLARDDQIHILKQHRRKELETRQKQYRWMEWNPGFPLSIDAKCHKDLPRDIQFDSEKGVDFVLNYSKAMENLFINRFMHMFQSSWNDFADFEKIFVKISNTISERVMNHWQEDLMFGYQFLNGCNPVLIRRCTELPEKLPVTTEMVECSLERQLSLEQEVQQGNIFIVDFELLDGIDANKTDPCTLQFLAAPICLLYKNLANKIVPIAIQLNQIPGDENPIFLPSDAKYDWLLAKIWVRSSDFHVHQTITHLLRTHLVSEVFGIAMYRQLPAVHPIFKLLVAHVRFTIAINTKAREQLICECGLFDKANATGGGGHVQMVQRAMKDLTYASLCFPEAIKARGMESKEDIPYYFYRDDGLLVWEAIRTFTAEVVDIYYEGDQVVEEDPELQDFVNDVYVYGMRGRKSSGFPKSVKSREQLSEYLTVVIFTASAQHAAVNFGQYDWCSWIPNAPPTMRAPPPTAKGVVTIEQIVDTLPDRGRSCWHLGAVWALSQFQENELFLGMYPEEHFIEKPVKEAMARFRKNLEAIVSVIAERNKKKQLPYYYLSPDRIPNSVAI
Method: (§1) As stated previously, the heterocyclic ethers of the formula I are inhibitors of the enzyme 5-LO. […] This test provides a measure of the intrinsic inhibitory properties against soluble 5-LO in an extracellular environment. • b) An in vitro assay system involving incubating a test compound with heparinised human blood, prior to challenge with the calcium ionophore A23187 and then indirectly measuring the inhibitory effects on 5-LO by assaying the amount of LTB₄ using the specific radioimmunoassay described by Carey and Forder (F. Carey and R.A. Forder, Brit. […] The effects of a test compound on the enzyme cyclooxygenase (which is involved in the alternative metabolic pathway for arachidonic acid and gives rise to prostaglandins, thromboxanes and related metabolites) may be measured at the same time using the specific radioimmunoassay for thromboxane B₂(TxB₂) described by Carey and Forder (see above). […] It permits the selectivity of the inhibitory effect on 5-LO or cyclooxygenase to be assessed. • c) An ex vivo assay system, which is a variation of test b) above, involving administration of a test compound (usually orally as the suspension produced when a solution of the test compound in dimethylsulphoxide is added to carboxymethylcellulose), blood collection, heparinisation, challenge with A23187 and radioimmunoassay of LTB₄ and TxB₂. […]

cyclooxygenase = molecular target: T2, cyclooxygenase (Homo sapiens, UniProt P23219); assay: Test b): in vitro heparinised human blood challenged with calcium ionophore A23187, radioimmunoassay of TxB2; format: cell-based; settings: A23187 challenge, read-out: IC₅₀ against TxB₂
T2 construct: against 5-LO and also cyclooxygenase in the presence of blood cells and proteins; endogenous in cells; host or cells: blood cells in heparinised human whole blood
T2 sequence (P23219 24-599): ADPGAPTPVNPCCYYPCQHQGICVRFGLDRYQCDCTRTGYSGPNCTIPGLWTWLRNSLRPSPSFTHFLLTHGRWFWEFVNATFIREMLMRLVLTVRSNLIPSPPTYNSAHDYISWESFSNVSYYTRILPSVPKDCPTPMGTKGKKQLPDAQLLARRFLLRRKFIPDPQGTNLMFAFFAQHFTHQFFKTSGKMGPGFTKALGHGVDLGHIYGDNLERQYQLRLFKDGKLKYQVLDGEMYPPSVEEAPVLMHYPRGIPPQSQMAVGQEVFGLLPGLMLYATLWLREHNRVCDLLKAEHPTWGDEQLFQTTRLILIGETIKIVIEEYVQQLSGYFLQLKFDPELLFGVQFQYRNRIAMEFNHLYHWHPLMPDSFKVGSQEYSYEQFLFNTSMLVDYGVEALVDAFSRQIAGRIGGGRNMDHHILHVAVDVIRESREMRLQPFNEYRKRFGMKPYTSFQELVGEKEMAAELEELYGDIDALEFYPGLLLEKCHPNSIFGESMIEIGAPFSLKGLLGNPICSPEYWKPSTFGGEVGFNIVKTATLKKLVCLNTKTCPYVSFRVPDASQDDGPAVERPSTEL
Method: as §1

| SMILES | IC50 (5-LO) | IC50 (cyclooxygenase) |
| --- | --- | --- |
| C=CCOCC(CC)(OCC=C)c1cc(F)cc(OCc2ccc3c(ccc(=O)n3C)c2)c1 (stereo not drawn) [2-allyloxy-2-[5-fluoro-3-(1,2-dihydro-1-methyl-2-oxoquinolin-6-ylmethoxy)phenyl]but-1-yl allyl ether] | 100 nM |  |
| CCC(COC)(OC)c1cccc(OCC#Cc2ccccn2)c1 (stereo not drawn) [2-methoxy-2-[3-(3-(2-pyridyl)prop-2-yn-1-yloxy)phenyl]but-1-yl methyl ether] | 1000 nM | > 40000 nM |
